# Experimental data as given in patent US12673961B2 (Agios Pharmaceuticals, Inc., priority 2022, dated 2026).
# Target: T1, human PAH with the R408W mutation (Homo sapiens, UniProt P00439, R408W)
# T1 construct: expressed in transfected cells
# T1 sequence (P00439 1-452 R408W): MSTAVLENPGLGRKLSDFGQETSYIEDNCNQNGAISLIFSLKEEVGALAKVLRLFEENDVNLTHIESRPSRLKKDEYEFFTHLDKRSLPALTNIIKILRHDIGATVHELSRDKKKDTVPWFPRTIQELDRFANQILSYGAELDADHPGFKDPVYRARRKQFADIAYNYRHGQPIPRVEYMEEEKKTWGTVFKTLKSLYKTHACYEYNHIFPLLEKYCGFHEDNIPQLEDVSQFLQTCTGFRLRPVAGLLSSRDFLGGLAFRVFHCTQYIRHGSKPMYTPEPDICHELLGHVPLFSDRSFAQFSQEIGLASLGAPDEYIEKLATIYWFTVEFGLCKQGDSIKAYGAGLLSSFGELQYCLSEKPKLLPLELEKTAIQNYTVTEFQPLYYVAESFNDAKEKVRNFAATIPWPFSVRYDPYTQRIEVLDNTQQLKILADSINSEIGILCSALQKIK
# Test: Cell Based Phenylalanine Flux Assay;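 note: Ten-point dose curve from 2-fold serial dilutions, run in duplicate at 0.5% DMSO final, tracer step used 20 µM sepiapterin and 800 µM labeled phenylalanine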
# Conditions: A375 cells expressing human R408W PAH; 24 hrs compound incubation; 13C-Tyrosine by LC-MS; average where tested multiple times; read-out: AC50
row,AC50 [nM],SMILES
1,> 5000,"Cn1ccc(-c2nnc(C(=O)N3CCc4[nH]cnc4[C@@H]3c3cc4cccc(C(F)(F)F)n4n3)o2)n1 [Example 1031, (R)-(5-(1-methyl-1H-pyrazol-3-yl)-1,3,4-oxadiazol-2-yl)(4-(7-(trifluoromethyl)pyrazolo[1,5-a]pyridin-2-yl)-6,7-dihydro-1H-imidazo [4,5-c]pyridin-5(4H)-yl)methanone]"
2,> 5000,"O=C(c1nnc(-c2ccccn2)o1)N1CCc2[nH]cnc2[C@@H]1c1cc2cccc(Cl)n2n1 [Example 1043, (R)-(4-(7-chloropyrazolo [1,5-a]pyridin-2-yl)-6,7-dihydro-1H-imidazo[4,5-c]pyridin-5(4H)-yl)(5-(pyridin-2-yl)-1,3,4-oxadiazol-2-yl) methanone]"
3,< 500,"Cn1ncnc1C(=O)N1CCc2[nH]cnc2[C@H]1c1cc2c(Cl)cccn2n1 [Example 1050, (S)-(4-(4-chloropyrazolo [1,5-a]pyridin-2-yl)-6,7-dihydro-1H-imidazo[4,5-c]pyridin-5(4H)-yl)(1-methyl-1H-1,2,4-triazol-5-yl)methanone]"
4,> 5000,Cc1cccn2nc([C@H]3c4nc[nH]c4CCN3C(=O)c3nc(C4CC4)nn3C)cc12 [Example 1059]
5,< 500,"Cn1nc(C(F)(F)F)nc1C(=O)N1CCc2[nH]cnc2[C@H]1c1cc2c(C(F)(F)F)cccn2n1 [Example 1062, (S)-(1-methyl-3-(trifluoromethyl)-1H-1,2,4-triazol-5-yl)(4-(4-(trifluoromethyl)pyrazolo[1,5-a]pyridin-2-yl)-6,7-dihydro-1H-imidazo [4,5-c]pyridin-5(4H)-yl)methanone]"
6,1000 to 5000,"O=C(c1ccnn1C(F)F)N1CCc2[nH]cnc2[C@@H]1c1cc2cccc(Cl)n2n1 [Example 1065, (R)-(4-(7-chloropyrazolo [1,5-a]pyridin-2-yl)-6,7-dihydro-1H-imidazo[4,5-c]pyridin-5(4H)-yl)(1-(difluoromethyl)-1H-pyrazol-5-yl)methanone]"
7,> 5000,"Cn1cc(-c2nnc(C(=O)N3CCc4[nH]cnc4[C@@H]3c3cc4cccc(Cl)n4n3)o2)cn1 [Example 1067, (R)-(4-(7-chloropyrazolo [1,5-a]pyridin-2-yl)-6,7-dihydro-1H-imidazo[4,5-c]pyridin-5(4H)-yl)(5-(1-methyl-1H-pyrazol-4-yl)-1,3,4-oxadiazol-2-yl)methanone]"
8,1000 to 5000,"Cn1nc(C2CC2)nc1C(=O)N1CCc2[nH]cnc2[C@@H]1c1cc2c(Cl)cccn2n1 [Example 1073, (R)-(4-(4-chloropyrazolo [1,5-a]pyridin-2-yl)-6,7-dihydro-1H-imidazo[4,5-c]pyridin-5(4H)-yl)(3-cyclopropyl-1-methyl-1H-1,2,4-triazol-5-yl)methanone]"
9,500 to 1000,"Cc1nc(C(=O)N2CCc3[nH]cnc3[C@H]2c2cc3c(Cl)cccn3n2)n(C)n1 [Example 1074, (S)-(4-(4-chloropyrazolo [1,5-a]pyridin-2-yl)-6,7-dihydro-1H-imidazo[4,5-c]pyridin-5(4H)-yl)(1,3-dimethyl-1H-1,2,4-triazol-5-yl)methanone]"
10,< 500,"O=C(c1ocnc1C(F)F)N1CCc2[nH]cnc2[C@H]1c1cc2ccc(C(F)(F)F)cn2n1 [Example 1104, (S)-(4-(difluoromethyl)oxazol-5-yl)(4-(6-(trifluoromethyl)pyrazolo [1,5-a]pyridin-2-yl)-6,7-dihydro-1H-imidazo[4,5-c]pyridin-5(4H)-yl)methanone]"
11,< 500,"CC(C)(F)c1nnc(C(=O)N2CCc3[nH]cnc3[C@H]2c2cc3c(Cl)cccn3n2)o1 [Example 1109, (S)-(4-(4-chloropyrazolo [1,5-a]pyridin-2-yl)-6,7-dihydro-1H-imidazo[4,5-c]pyridin-5(4H)-yl)(5-(2-fluoropropan-2-yl)-1,3,4-oxadiazol-2-yl)methanone]"
12,500 to 1000,"Cc1ccc2cc([C@@H]3c4nc[nH]c4CCN3C(=O)c3nnc(C(C)(C)C)o3)nn2c1 [Example 1110, (S)-(5-(tert-butyl)-1,3,4-oxadiazol-2-yl)(4-(6-methylpyrazolo[1,5-a]pyridin-2-yl)-6,7-dihydro-1H-imidazo[4,5-c]pyridin-5(4H)-yl)methanone]"
13,< 500,"CC(C)(O)c1nc(C(F)F)c(C(=O)N2CCc3[nH]cnc3[C@H]2c2cc3ccc(C(F)(F)F)cn3n2)o1 [Example 1116, (S)-(4-(difluoromethyl)-2-(2-hydroxypropan-2-yl)oxazol-5-yl)(4-(6-(trifluoromethyl)pyrazolo[1,5-a]pyridin-2-yl)-6,7-dihydro-1H-imidazo [4,5-c]pyridin-5(4H)-yl)methanone]"
14,> 5000,"CC(C)(O)c1nc(C(F)F)c(C(=O)N2CCc3[nH]cnc3[C@@H]2c2cc3ccc(C(F)(F)F)cn3n2)o1 [Example 1117, (R)-(4-(difluoromethyl)-2-(2-hydroxypropan-2-yl)oxazol-5-yl)(4-(6-(trifluoromethyl)pyrazolo[1,5-a]pyridin-2-yl)-6,7-dihydro-1H-imidazo[4,5-c]pyridin-5(4H)-yl)methanone]"
15,< 500,"O=C(c1nnc(-c2ccn(C(F)F)n2)o1)N1CCc2[nH]cnc2[C@H]1c1cc2c(Cl)cccn2n1 [Example 1118, (S)-(4-(4-chloropyrazolo [1,5-a]pyridin-2-yl)-6,7-dihydro-1H-imidazo[4,5-c]pyridin-5(4H)-yl)(5-(1-(difluoromethyl)-1H-pyrazol-3-yl)-1,3,4-oxadiazol-2-yl)methanone]"
16,1000 to 5000,"CC(C)(C)c1nnc(C(=O)N2CCc3[nH]cnc3[C@@H]2c2cc3ccc(F)cn3n2)o1 [Example 1125, (R)-(5-(tert-butyl)-1,3,4-oxadiazol-2-yl)(4-(6-fluoropyrazolo[1,5-a]pyridin-2-yl)-6,7-dihydro-1H-imidazo[4,5-c]pyridin-5(4H)-yl)methanone]"
17,1000 to 5000,"Cn1nc(C(F)F)nc1C(=O)N1CCc2[nH]cnc2[C@@H]1c1cc2ccc(C(F)(F)F)cn2n1 [Example 1127, (R)-(3-(difluoromethyl)-1-methyl-1H-1,2,4-triazol-5-yl)(4-(6-(trifluoromethyl)pyrazolo[1,5-a]pyridin-2-yl)-6,7-dihydro-1H-imidazo [4,5-c]pyridin-5(4H)-yl)methanone]"
18,1000 to 5000,"O=C(c1ccnn1C(F)F)N1CCc2[nH]cnc2[C@@H]1c1cc2cc(C(F)(F)F)ccn2n1 [Example 1133, (R)-(1-(difluoromethyl)-1H-pyrazol-5-yl)(4-(5-(trifluoromethyl)pyrazolo [1,5-a]pyridin-2-yl)-6,7-dihydro-1H-imidazo[4,5-c]pyridin-5(4H)-yl)methanone]"
19,1000 to 5000,"O=C(c1nnc(C2CC2)o1)N1CCc2[nH]cnc2[C@@H]1c1cc2cccc(Cl)n2n1 [Example 1136, (R)-(4-(7-chloropyrazolo [1,5-a]pyridin-2-yl)-6,7-dihydro-1H-imidazo[4,5-c]pyridin-5(4H)-yl)(5-cyclopropyl-1,3,4-oxadiazol-2-yl)methanone]"
20,500 to 1000,O=C(c1nnc(C2CC2)o1)N1CCc2[nH]cnc2[C@H]1c1cc2cccc(Cl)n2n1 [Example 1137]
21,1000 to 5000,"O=C(c1ccnn1C(F)F)N1CCc2[nH]cnc2[C@@H]1c1cc2ccc(C(F)(F)F)cn2n1 [Example 1139, (R)-(1-(difluoromethyl)-1H-pyrazol-5-yl)(4-(6-(trifluoromethyl)pyrazolo [1,5-a]pyridin-2-yl)-6,7-dihydro-1H-imidazo[4,5-c]pyridin-5(4H)-yl)methanone]"
22,< 500,"Cc1cccc2cc([C@@H]3c4nc[nH]c4CCN3C(=O)c3oc([C@@H](C)O)nc3C(F)F)nn12 [Example 1164, (4-(difluoromethyl)-2-((R)-1-hydroxyethyl)oxazol-5-yl)((S)-4-(7-methylpyrazolo [1,5-a]pyridin-2-yl)-6,7-dihydro-1H-imidazo[4,5-c]pyridin-5(4H)-yl)methanone]"
23,> 5000,"Cc1ccc2cc([C@H]3c4nc[nH]c4CCN3C(=O)c3nnc(C(C)(C)F)o3)nn2c1 [Example 1170, (R)-(5-(2-fluoropropan-2-yl)-1,3,4-oxadiazol-2-yl)(4-(6-methylpyrazolo[1,5-a]pyridin-2-yl)-6,7-dihydro-1H-imidazo[4,5-c]pyridin-5(4H)-yl)methanone]"
24,1000 to 5000,"Cc1ncoc1C(=O)N1CCc2[nH]cnc2[C@@H]1c1cc2cccc(Cl)n2n1 [Example 1175, (R)-(4-(7-chloropyrazolo [1,5-a]pyridin-2-yl)-6,7-dihydro-1H-imidazo[4,5-c]pyridin-5(4H)-yl)(4-methyloxazol-5-yl)methanone]"
25,500 to 1000,"Cc1ccn2nc([C@H]3c4nc[nH]c4CCN3C(=O)c3cnco3)cc2c1 [Example 1184, (R)-(4-(5-methylpyrazolo [1,5-a]pyridin-2-yl)-6,7-dihydro-1H-imidazo[4,5-c]pyridin-5(4H)-yl)(oxazol-5-yl)methanone]"
26,1000 to 5000,"Cc1ccn2nc([C@@H]3c4nc[nH]c4CCN3C(=O)c3cnco3)cc2c1 [Example 1185, (S)-(4-(5-methylpyrazolo [1,5-a]pyridin-2-yl)-6,7-dihydro-1H-imidazo[4,5-c]pyridin-5(4H)-yl)(oxazol-5-yl)methanone]"
27,500 to 1000,"Cc1c(-c2nnc(C(=O)N3CCc4[nH]cnc4[C@H]3c3cc4cccc(C)n4n3)o2)cnn1C [Example 1188, (S)-(5-(1,5-dimethyl-1H-pyrazol-4-yl)-1,3,4-oxadiazol-2-yl)(4-(7-methylpyrazolo[1,5-a]pyridin-2-yl)-6,7-dihydro-1H-imidazo[4,5-c]pyridin-5(4H)-yl)methanone]"
